Tests used:
[1] = Ratten; cited from earlier work
[2] = nach Ibuprofengaben; cited from earlier work
[3] = synoviale Flüssigkeit, Patienten mit Arthritis; cited from earlier work
[4] = In vitro diffusion study, concentration in the receptor cell, buffer pH 1,2, 37° C (Tabelle II); assay type: in vitro ADME; conditions: Pufferlösung pH = 1,2, 37° C
Source text: Um die gute biologische Verfügbarkeit des S-(+)-Ibuprofens aus der komplexierten Form zu testen, wurden in vitro-Diffusionsversuche durchgeführt. Die Diffusion des S-(+)-Ibuprofens aus dem β-Cyclodextrin-Komplex war schneller, die S-(+)-Ibuprofen-Menge in der Rezeptorzelle betrug das 1,6fache bei pH = 1,2 nach 6 Stunden im Vergleich zum freien Arzneimittel (Tabelle II).

[5] = Dissolution properties in water at 37° C (Tabelle I); assay type: physicochemical; conditions: Wasser

Compound | Absorptionsgrad [1] | aus dem Urin zurückgewonnen [2] | Konzentrationsverhältnis S zu R [3] | Konzentration von S-(+)-Ibuprofen in der Rezeptorzelle ([4]; Zeit 90 min) | Konzentration von S-(+)-Ibuprofen in der Rezeptorzelle ([4]; Zeit 120 min) | Konzentration von S-(+)-Ibuprofen in der Rezeptorzelle ([4]; Zeit 180 min) | Konzentration von S-(+)-Ibuprofen in der Rezeptorzelle ([4]; Zeit 240 min) | Konzentration von S-(+)-Ibuprofen in der Rezeptorzelle ([4]; Zeit 360 min) | gelöstes Ibuprofen ([5]; Zeit 1 min) | gelöstes Ibuprofen ([5]; Zeit 5 min) | gelöstes Ibuprofen ([5]; Zeit 10 min) | gelöstes Ibuprofen ([5]; Zeit 15 min) | gelöstes Ibuprofen ([5]; Zeit 30 min) | gelöstes Ibuprofen ([5]; Zeit 60 min)
CC(C)Cc1ccc(C(C)C(=O)O)cc1 (racemic) [Ibuprofen] | gleich | 5,0% |  |  |  |  |  |  |  |  |  |  |  | 
CC(C)Cc1ccc([C@H](C)C(=O)O)cc1 [S-(+)-Ibuprofen, S-(+)-2-(-4-Isobutylphenyl)propionsäure] |  |  | 2,1 | 0,022 mg/ml | 0,027 mg/ml | 0,038 mg/ml | 0,047 mg/ml | 0,061 mg/ml | 0,04 mg/ml | 0,10 mg/ml | 0,12 mg/ml | 0,13 mg/ml | 0,12 mg/ml | 0,12 mg/ml

From patent EP0490193A1, “Complex of an actif enantiomer of ibuprofen with cyclodextrin” (priority 1990, dated 1992)
